In US20160367502A1, “FILM COATED PELLETS” (RATIOPHARM GMBH, priority 2012, published 2016):
Read-outs that look alike come from different tables or passages of the source.

Assay: Solubility in water at 25° C.
Format: physicochemical
Experimental: If it is not known, it can be determined by conventional methods. […] The amount or concentration of the active pharmaceutical ingredient in the solution is determined by analytical techniques known in the art.

[1] = sitagliptin salts, water, 25° C.

Solubility of sitagliptin salts in water at 25° C. | Compound | Solubility of sitagliptin salts in water at 25° C. [1]
– | N[C@@H](CC(=O)N1CCn2c(nnc2C(F)(F)F)C1)Cc1cc(F)c(F)cc1F.O=C[C@H](O)[C@@H](O)[C@H](O)[C@H](O)C(=O)O [D-Glucuronate, sitagliptin D-glucuronate] | >500 mg/mL
– | N[C@@H](CC(=O)N1CCn2c(nnc2C(F)(F)F)C1)Cc1cc(F)c(F)cc1F.O=P(O)(O)O [Dihydrogen phosphate, sitagliptin dihydrogen phosphate] | 100 to 120 mg/mL
>500 mg/mL | sitagliptin glutarate | –
